{
  "source": "patent US7268126B2",
  "about": "“Polymorphic and amorphous forms of the phosphate salt of 8-fluoro-2-{4-[(methylamino)methyl]phenyl}-1,3,4,5-tetrahydro-6H-azepino[5,4,3-ce]indol-6-one” (Agouron Pharmaceuticals, Inc., priority 2004, dated 2007)",
  "key": {"[1]": {"test": "physical and chemical storage stability of polymorphic forms", "conditions": "for physically stable, duration: ambient condition"}, "[2]": {"conditions": "pH 5.4"}, "[3]": {"conditions": "40° C. under 75% relative humidity"}},
  "note": "Like-named read-outs stand apart in the source and are kept apart here.",
  "data": [
    {"smiles": "CNCc1ccc(-c2[nH]c3cc(F)cc4c3c2CCNC4=O)cc1.O=P(O)(O)O", "note": "[Form I, phosphate salt of 8-fluoro-2-{4-[(methylamino)methyl]phenyl}-1,3,4,5-tetrahydro-6H-azepino[5,4,3-cd]indol-6-one]", "values": [
      {"measurement": "conversion to Form III (Hydrate B)", "setting": "[1]; [3]", "value": "after one week"},
      {"measurement": "physically stable, duration", "setting": "[1]", "value": "at least 3 months"},
      {"measurement": "aqueous solubility", "setting": "[2]", "value": 2800, "unit": "µg/mL"}
    ]},
    {"smiles": "CNCc1ccc(-c2[nH]c3cc(F)cc4c3c2CCNC4=O)cc1.O=P(O)(O)O", "note": "[Form II, phosphate salt of 8-fluoro-2-{4-[(methylamino)methyl]phenyl}-1,3,4,5-tetrahydro-6H-azepino[5,4,3-cd]indol-6-one]", "values": [
      {"measurement": "conversion to Form III (Hydrate B)", "setting": "[1]; 25° C. under 90% relative humidity", "value": "overnight"},
      {"measurement": "conversion to Form III (Hydrate B)", "setting": "[1]; [3]", "value": "after 1 week"},
      {"measurement": "physically stable, duration", "setting": "[1]", "value": "at least 3 months"},
      {"measurement": "aqueous solubility", "setting": "[2]", "value": 3000, "unit": "µg/mL"},
      {"measurement": "Solubility", "setting": "pH 3", "value": 460, "unit": "µg/mL"},
      {"measurement": "Solubility", "setting": "pH 4", "value": 390, "unit": "µg/mL"},
      {"measurement": "Solubility", "setting": "pH 5", "value": 370, "unit": "µg/mL"},
      {"measurement": "Solubility", "setting": "pH 6", "value": 320, "unit": "µg/mL"},
      {"measurement": "Solubility", "setting": "pH 7", "value": 250, "unit": "µg/mL"},
      {"measurement": "Solubility", "setting": "pH 8", "value": 190, "unit": "µg/mL"}
    ]},
    {"smiles": "CNCc1ccc(-c2[nH]c3cc(F)cc4c3c2CCNC4=O)cc1.O=P(O)(O)O", "note": "[Form III, phosphate salt of 8-fluoro-2-{4-[(methylamino)methyl]phenyl}-1,3,4,5-tetrahydro-6H-azepino[5,4,3-cd]indol-6-one]", "values": [
      {"measurement": "aqueous solubility", "setting": "[2]", "value": 2700, "unit": "µg/mL"}
    ]},
    {"smiles": "CNCc1ccc(-c2[nH]c3cc(F)cc4c3c2CCNC4=O)cc1.O=P(O)(O)O", "note": "[Form IV, phosphate salt of 8-fluoro-2-{4-[(methylamino)methyl]phenyl}-1,3,4,5-tetrahydro-6H-azepino[5,4,3-cd]indol-6-one]", "values": [
      {"measurement": "aqueous solubility", "setting": "[2]", "value": 4500, "unit": "µg/mL"}
    ]},
    {"smiles": "CNCc1ccc(-c2[nH]c3cc(F)cc4c3c2CCNC4=O)cc1.O=P(O)(O)O", "note": "[Form V, phosphate salt of 8-fluoro-2-{4-[(methylamino)methyl]phenyl}-1,3,4,5-tetrahydro-6H-azepino[5,4,3-cd]indol-6-one]", "values": [
      {"measurement": "physically and chemically stable, duration", "setting": "[1]; room temperature", "value": "at least 3 months"}
    ]}
  ]
}
